Results from patent US6841519B1, “Isoxazoline derivatives and herbicides containing the same as the active ingredient” (Kumiai Chemical Industry Co., Ltd., priority 1999, dated 2005).

Experiments:
Type in all cases: in vivo
[1] = test system: Echinochloa oryzicola Vasing. (Eo); assay: Test for herbicidal effect by paddy field soil treatment (Test Example 1); conditions: application amount (active ingredient) 100 g/10 a, examined at the 21st day from the treatment, index per Table 40
Experimental: <Test Example 1> Test For Herbicidal Effect By Paddy Field Soil Treatment A paddy field soil was filled in a plastic pot of 100 cm^2 and subjected to puddling. Then, seeds of Echinochloa oryzicola Vasing. (Eo) were sowed and water was filled in a depth of 3 cm. Next day, wettable powders produced in accordance with the Formulation 1 were diluted with water and dropped on the water surface. The application amount of each wettable powder was 100 g per 10 ares in terms of the active ingredient. Then, breeding was made in a greenhouse, and the herbicidal effect of each wettable powder was examined at the 21st day from the treatment in accordance with the standard shown in Table 40. [table]

[2] = test system: Echinochloa crus-galli (L.) Beauv. var. crusgall (Ec); assay: Test for herbicidal effect by upland field soil treatment (Test Example 2), Ec; conditions: application amount (active ingredient) 100 g/10 a, examined at the 21st day from the treatment, index per Table 40
Experimental: (§1) [table] <Test Example 2> Test For Herbicidal Effect By Upland Field Soil Treatment An upland field soil was filed in a plastic pot of 80 cm^2. Seeds of Echinochloa crus-galli (L.) Beauv. var. crusgall (Ec) and Setaria viridis (L.) Beauv. (Se) were sowed, followed by covering with the same soil. Wettable powders produced in accordance with the Formulation 1 were diluted with water and sprayed uniformly: on the soil surface using a small sprayer, in an amount of 100 liters per 10 ares so that the amount of each active ingredient became 100 g per 10 ares. Then, breeding was made in a greenhouse, and the herbicidal effect of each wettable powder was examined at the 21st day from the treatment in accordance with the standard shown in Table 40.

[3] = test system: Setaria viridis (L.) Beauv. (Se); assay: Test for herbicidal effect by upland field soil treatment (Test Example 2), Se; conditions: application amount (active ingredient) 100 g/10 a, examined at the 21st day from the treatment, index per Table 40
Experimental: as §1

[4] = test system: Echinochloa crus-galli (L.) Beauv. var. crusgalli (Ec); assay: Test for herbicidal effect by upland foliage treatment (Test Example 3); conditions: 100 g/10 a active ingredient, examined at 14th day
Experimental: Test For Herbicidal Effect By Upland Foliage Treatment
An upland field soil was filed in a plastic pot of 80 cm^2. Seeds of Echinochloa crus-galli (L.) Beauv. var. crusgalli (Ec) were sowed. Breeding was made in a greenhouse for 2 weeks. Wettable powders produced in accordance with the Formulation 1 were diluted with water and sprayed on the whole foliage of plants from above the plants using a small sprayer in an amount of 100 liters per 10 ares so that the amount of each active ingredient became 100 g per 10 ares. Then, breeding was made in the greenhouse, and the herbicidal effect of each wettable powder was examined at the 14th day from the treatment in accordance with the standard shown in Table 40.

Compound	Herbicidal effect to Eo [1]	Herbicidal effect to Ec [2]	Herbicidal effect to Se [3]	Herbicidal effect to Ec [4]
CCC1(C)CC(S(=O)(=O)Cc2ccccc2)=NO1 (stereo not drawn) [Compound 1-188]	5 (A herbicidal effect or phytotoxicity of 90% or more)	5 (A herbicidal effect or phytotoxicity of 90% or more)	5 (A herbicidal effect or phytotoxicity of 90% or more)	4 (A herbicidal effect or phytotoxicity of 70% to less than 90%)
CCC1(C)CC(S(=O)(=O)Cc2ccccc2Cl)=NO1 (stereo not drawn) [Compound 1-192]	5 (A herbicidal effect or phytotoxicity of 90% or more)	5 (A herbicidal effect or phytotoxicity of 90% or more)	5 (A herbicidal effect or phytotoxicity of 90% or more)	4 (A herbicidal effect or phytotoxicity of 70% to less than 90%)
CCC1(C)CC(S(=O)(=O)Cc2cccc(Cl)c2)=NO1 (stereo not drawn) [Compound 1-193]	5 (A herbicidal effect or phytotoxicity of 90% or more)	5 (A herbicidal effect or phytotoxicity of 90% or more)	4 (A herbicidal effect or phytotoxicity of 70% to less than 90%)	5 (A herbicidal effect or phytotoxicity of 90% or more)
CCC1(C)CC([S+]([O-])Cc2c(F)cccc2F)=NO1 (stereo not drawn) [Compound 1-199, 5-ethyl-3-(2,6-difluorobenzylsulfinyl)-5-methyl-2-isoxazoline]	5 (A herbicidal effect or phytotoxicity of 90% or more)	5 (A herbicidal effect or phytotoxicity of 90% or more)	5 (A herbicidal effect or phytotoxicity of 90% or more)	4 (A herbicidal effect or phytotoxicity of 70% to less than 90%)
CCC1(C)CC(S(=O)(=O)Cc2c(F)cccc2F)=NO1 (stereo not drawn) [Compound 1-200, 5-ethyl-3-(2,6-difluorobenzylsulfonyl)-5-methyl-2-isoxazoline]	5 (A herbicidal effect or phytotoxicity of 90% or more)	5 (A herbicidal effect or phytotoxicity of 90% or more)	5 (A herbicidal effect or phytotoxicity of 90% or more)	4 (A herbicidal effect or phytotoxicity of 70% to less than 90%)
CCC1(C)CC(S(=O)(=O)Cc2ccccc2C)=NO1 (stereo not drawn) [Compound 1-201]	5 (A herbicidal effect or phytotoxicity of 90% or more)	5 (A herbicidal effect or phytotoxicity of 90% or more)	5 (A herbicidal effect or phytotoxicity of 90% or more)	5 (A herbicidal effect or phytotoxicity of 90% or more)
CCC1(C)CC(S(=O)(=O)Cc2cccc(C)c2)=NO1 (stereo not drawn) [Compound 1-202]	5 (A herbicidal effect or phytotoxicity of 90% or more)	5 (A herbicidal effect or phytotoxicity of 90% or more)	4 (A herbicidal effect or phytotoxicity of 70% to less than 90%)	4 (A herbicidal effect or phytotoxicity of 70% to less than 90%)
CCC1(C)CC(S(=O)(=O)Cc2ccccc2C(F)(F)F)=NO1 (stereo not drawn) [Compound 1-336]	5 (A herbicidal effect or phytotoxicity of 90% or more)	5 (A herbicidal effect or phytotoxicity of 90% or more)	5 (A herbicidal effect or phytotoxicity of 90% or more)	5 (A herbicidal effect or phytotoxicity of 90% or more)
CCC1(CC)CC([S+]([O-])Cc2c(F)cccc2F)=NO1 (stereo not drawn) [Compound 1-363]	5 (A herbicidal effect or phytotoxicity of 90% or more)	5 (A herbicidal effect or phytotoxicity of 90% or more)	4 (A herbicidal effect or phytotoxicity of 70% to less than 90%)	4 (A herbicidal effect or phytotoxicity of 70% to less than 90%)
CCC1(CC)CC(S(=O)(=O)Cc2c(F)cccc2F)=NO1 [Compound 1-364]	5 (A herbicidal effect or phytotoxicity of 90% or more)	5 (A herbicidal effect or phytotoxicity of 90% or more)	5 (A herbicidal effect or phytotoxicity of 90% or more)	4 (A herbicidal effect or phytotoxicity of 70% to less than 90%)
CCCC1(C)CC(S(=O)(=O)Cc2c(F)cccc2F)=NO1 (stereo not drawn) [Compound 1-366]	5 (A herbicidal effect or phytotoxicity of 90% or more)	5 (A herbicidal effect or phytotoxicity of 90% or more)	5 (A herbicidal effect or phytotoxicity of 90% or more)	4 (A herbicidal effect or phytotoxicity of 70% to less than 90%)
CC1(C2CC2)CC(S(=O)(=O)Cc2c(F)cccc2F)=NO1 (stereo not drawn) [Compound 1-378]	5 (A herbicidal effect or phytotoxicity of 90% or more)	5 (A herbicidal effect or phytotoxicity of 90% or more)	5 (A herbicidal effect or phytotoxicity of 90% or more)	5 (A herbicidal effect or phytotoxicity of 90% or more)
O=S(=O)(Cc1c(F)cccc1F)C1=NOC2(CC2)C1 [Compound 1-380]	5 (A herbicidal effect or phytotoxicity of 90% or more)	5 (A herbicidal effect or phytotoxicity of 90% or more)	4 (A herbicidal effect or phytotoxicity of 70% to less than 90%)	4 (A herbicidal effect or phytotoxicity of 70% to less than 90%)
O=S(=O)(Cc1c(F)cccc1F)C1=NOC2(CCCC2)C1 [Compound 1-383]	5 (A herbicidal effect or phytotoxicity of 90% or more)	5 (A herbicidal effect or phytotoxicity of 90% or more)	4 (A herbicidal effect or phytotoxicity of 70% to less than 90%)	4 (A herbicidal effect or phytotoxicity of 70% to less than 90%)
CC1(C)CC(S(=O)(=O)Cc2cccc(Cl)c2Cl)=NO1 [Compound 1-487]	5 (A herbicidal effect or phytotoxicity of 90% or more)	5 (A herbicidal effect or phytotoxicity of 90% or more)	5 (A herbicidal effect or phytotoxicity of 90% or more)	4 (A herbicidal effect or phytotoxicity of 70% to less than 90%)
CC1(C)CC(S(=O)(=O)Cc2ccc(Cl)cc2Cl)=NO1 [Compound 1-488]	5 (A herbicidal effect or phytotoxicity of 90% or more)	5 (A herbicidal effect or phytotoxicity of 90% or more)	4 (A herbicidal effect or phytotoxicity of 70% to less than 90%)	4 (A herbicidal effect or phytotoxicity of 70% to less than 90%)
CC1(C)CC(S(=O)(=O)Cc2cc(Cl)ccc2Cl)=NO1 [Compound 1-489]	5 (A herbicidal effect or phytotoxicity of 90% or more)	5 (A herbicidal effect or phytotoxicity of 90% or more)	5 (A herbicidal effect or phytotoxicity of 90% or more)	4 (A herbicidal effect or phytotoxicity of 70% to less than 90%)
CC1(C)CC(S(=O)(=O)Cc2c(Cl)cccc2Cl)=NO1 [Compound 1-490]	5 (A herbicidal effect or phytotoxicity of 90% or more)	5 (A herbicidal effect or phytotoxicity of 90% or more)	4 (A herbicidal effect or phytotoxicity of 70% to less than 90%)	4 (A herbicidal effect or phytotoxicity of 70% to less than 90%)
CC1(C)CC(S(=O)(=O)Cc2ccc(Cl)c(Cl)c2)=NO1 [Compound 1-491]	5 (A herbicidal effect or phytotoxicity of 90% or more)	5 (A herbicidal effect or phytotoxicity of 90% or more)	5 (A herbicidal effect or phytotoxicity of 90% or more)	4 (A herbicidal effect or phytotoxicity of 70% to less than 90%)
CC1(C)CC(S(=O)(=O)Cc2cc(Cl)cc(Cl)c2)=NO1 [Compound 1-492]	5 (A herbicidal effect or phytotoxicity of 90% or more)	5 (A herbicidal effect or phytotoxicity of 90% or more)	5 (A herbicidal effect or phytotoxicity of 90% or more)	4 (A herbicidal effect or phytotoxicity of 70% to less than 90%)
CC1(C)CC(S(=O)(=O)Cc2c(F)cccc2Cl)=NO1 [Compound 1-494]	5 (A herbicidal effect or phytotoxicity of 90% or more)	5 (A herbicidal effect or phytotoxicity of 90% or more)	5 (A herbicidal effect or phytotoxicity of 90% or more)	5 (A herbicidal effect or phytotoxicity of 90% or more)
